This is an account of results in US7595176B2, “Methods and reagents for quantitative analysis of Dehalococcoides species” (Georgia Tech Research Corporation, priority 2003, dated 2009).

Series [1] has as its system VC-dechlorinating Dehalococcoides population in the Bachman culture. The experiment in a line: Reductive dechlorination kinetics of chloroethenes in the VC-dechlorinating Bachman enrichment culture. It counts as cell-based, Dehalococcoides sp. The settings on record: for Ks (half-velocity coefficient) / kX (maximum aqueous dechlorination rate): pyruvate-fed cultures, Monod equation, nonlinear regression; for Dechlorination by the culture after prolonged enrichment with VC: chloroethene added alone, without DCEs or VC. The protocol: All experiments were carried out in serum bottles (160 ml nominal volume) containing 100 ml (final volume) of growth medium, which were sealed with black butyl rubber septa (Wheaton, Ochelata, Okla.). Anoxic, bicarbonate-buffered mineral salts medium was prepared, and was amended with pyruvate (10 mM), lactate (5 mM or 10 mM), acetate plus formate (5 mM each), or acetate (5 mM) as substrates. Löffler et al., Appl. Environ. Microbiol., 1997, 63:4982-4985. Unless indicated otherwise, H2 was only added to acetate-fed cultures at a partial pressure of 9 kPa. Routinely, L-cysteine and Na2S×9 H2O (0.2 mM each) were used to chemically reduce the medium. DL-dithiothreitol (DTT) was tested at 0.5 mM concentration. Titanium(III) (0.5 mM) was added from a filter-sterilized citrate solution after the medium had been autoclaved. Löffler et al., Appl. Environ. Microbial., 1996, 62:3809-3813; Zehnder et al., Science, 1976, 194:1165-1166. Gaseous VC was added as a single dose of 1 to 6 ml per serum bottle resulting in initial aqueous concentrations ranging from 0.27 to 1.6 mM. Other chloroethenes were added using Hamilton glass syringes (Hamilton, Reno, Nev.) to initial aqueous concentrations ranging from 0.2 to 0.5 mM. Biogenic cis-DCE was produced from PCE (0.5 mM) using a culture of ‘Desulfuromonas michiganensis’.
After complete dechlorination to cis-DCE (0.5 mM), the cultures were amended with pyruvate and inoculated with the VC-dechlorinating culture. New cultures were routinely seeded with a 2% (vol/vol) inoculum using plastic syringes. To minimize the contact of the inoculum with air present in the plastic of the syringes during transfers, the syringes were reduced with a sterile 0.5 mM aqueous sulfide solution for 5-10 min prior to transfers. Gaseous substrates were added with plastic syringes that had been previously flushed with H2- and O2-free N2.
All experiments were set up in triplicates, and all results were verified by at least one additional independent experiment. Culture bottles were incubated upside down at room temperature (22-25° C.) without agitation in the dark, unless indicated otherwise. Duplicate controls (no inoculum or autoclaved inoculum) accompanied each experiment. Ethene formation strictly depended on a viable inoculum, and loss of VC through the septum was negligible.
Chloroethenes were measured with a Hewlett Packard model 6890 gas chromatograph equipped with a HP-624 column (60 m length, 0.32 mm diameter, 1.8 μm film thickness) and a flame ionization detector (FID). Headspace samples of 100 μl were withdrawn with gas-tight 250 μl Hamilton glass syringes with Teflon-lined valves (model # 1725), and manually injected into a split injector operated at a split ratio of 2:1. All syringes were flushed with H2- and O2-free N2 gas to prevent contamination of the cultures with these gases. A temperature program that allowed the simultaneous analysis of all chloroethenes and ethene was described previously. He et al., Environ. Sci. Technol., 2002, 36: 3945-3952. Standards were prepared as described and 7-point calibration curves were established for all chloroethenes and ethene at room temperature. Gossett, Environ. Sci. Technol., 1987, 21: 202-208. The instrument detection limits for VC and ethene were 7.3 and 8.6 μM, respectively. For quantification of VC and ethene at different temperatures, concentrations of each compound were determined from 3-point calibration curves.
[formula] was used to describe the substrate reaction kinetics, where S is the chloroethene concentration, KS is the half-saturation coefficient, k is the maximum chloroethene dechlorination rate per unit of biomass, and X is the dechlorinating biomass concentration. It was assumed that Xlag was zero during the lag period due to the small inoculum transferred, and X remained constant during the phase of active dechlorination due to slow growth of the dechlorinating population(s). […]

For series [2] the following is noted: 25° C.; Gossett 1987; cited from earlier work.

Regarding `Cl/C=C/Cl` [trans-DCE], in series [1], the “Ks (half-velocity coefficient)” value came out at 8.5 ± 0.3 µM and the “kX (maximum aqueous dechlorination rate)” value stood at 26.2 ± 0.7 μMday^−1. Further, in series [2], the “Dimensionless Henry coefficient” value is 0.384.

On to `CC1(C)S[C@@H]2[C@H](NC(=O)[C@H](N)c3ccccc3)C(=O)N2[C@H]1C(=O)O` [ampicillin, reference compound], for which the “Effect on dechlorination rates of DCEs and VC to ethene” value in series [1] (compared with cultures without the antibiotic) is listed as “about one third less”.

In the case of `Cl/C=C\Cl` [cis-DCE], in series [1], the “Ks (half-velocity coefficient)” value was 8.9 ± 0.4 µM and the “kX (maximum aqueous dechlorination rate)” value is recorded as 23.1 ± 0.8 μMday^−1. For the same compound, in series [2], the “Dimensionless Henry coefficient” value is recorded as 0.167.

Regarding `ClC(Cl)=C(Cl)Cl` [PCE, Perchloroethene], in series [1], the “Dechlorination by the culture after prolonged enrichment with VC” value was “failed to dechlorinate”.

`C=C(Cl)Cl` [1,1-DCE]: in series [2], the “Dimensionless Henry coefficient” value is listed as 1.069.

In the case of `ClC=C(Cl)Cl` [TCE, trichloroethene], the “Dechlorination by the culture after prolonged enrichment with VC” value in series [1] is reported as “failed to dechlorinate”.

The compound `C=CCl` [VC, vinyl chloride] registered a VC dechlorination rate in series [1] (acetate-enriched cultures) of 2.4 ± 0.5 µmol/L/day. Also, in series [1], the “Ks (half-velocity coefficient)” value was found to be 5.8 ± 0.4 µM and the “kX (maximum aqueous dechlorination rate)” value stood at 54.4 ± 3.5 μMday^−1. Moreover, the “Dimensionless Henry coefficient” value in series [2] is given as 1.137.
